Reference: patent US10759835B2, “Monomeric streptavidin mutants, methods of using the same and processes of manufacturing proteins” (The Research Foundation for The State University of New York, priority 2016, dated 2020)

Test: Fluorescence polarization spectroscopy, biotin dissociation rate (koff)
Format: binding
Settings: 37° C.
Experimental: FIG. 4. In vitro characterization of purified mSA mutants. a) Stability of mSA-RF and mSA-RWT in PBS was measured by circular dichroism spectroscopy with or without biotin. b) Fluorescence polarization spectroscopy was used to measure the dissociation rate of biotin-fluorescein. The dissociation rate, koff, was computed by fitting normalized fluorescence polarization data, or bound fraction f, to an exponentially decaying function, i.e. ƒ=e^−k^off^*t The measurements were taken at 37° C. c) The equilibrium affinity of binding Kd between mSA-RF and biotin-fluorescein was measured by FP. d) mSA-S25H and mSA-RF were analyzed by size exclusion chromatography to estimate their molecular weights in solution. […]
The binding of biotinylated fluorescein (bf, AnaSpec) was measured using a microplate reader (SpectraMax® i3 Microplate reader from Molecular Devices) in flat bottom 96 well plates (Sterilin Ltd). […] After overnight incubation at room temperature, the fluorescence polarization values were measured and fit to the quadratic binding equation (Hsu and Park, 2010, J Mol Graph Model, 29, 295-308). […] To observe dissociation of bf, excess free biotin was added to a final concentration of 100 μM and recording of fluorescence was started immediately. The intensity of polarized fluorescence was measured at various time points and normalized with respect to the value at t=0 min. […]

What does the source list for “Wt SA: wild type streptavidin, tetrameric, SEQ ID NO: 20 [reference compound]”?
t1/2 (dissociation half-life t1/2=0.693/koff, biotin-fluorescein): 751 ± 261 min; Koff(×10^−3 min^−1) (dissociation of biotin-fluorescein, excess free biotin 100 μM): 0.923 ± 0.0253 ×10^−3 min^−1
